# Data reported in BindingDB's records for doi:10.1016/j.bmc.2005.09.061 (Fujisawa Pharmaceutical, 2006).
# Assays:
# [1] = target: Poly [ADP-ribose] polymerase 2 (Mus musculus, UniProt O88554); experiment: PARP Enzyme Inhibition Assay; conditions: 25 °C
# Method: (§1) To assess the inhibitory activity of novel inhibitors, the PARP enzyme assay was carried out in reaction mixture consisting of activated salmon testes DNA, [adenylate-32P]-NAD, recombinant PARP enzyme, and various concentrations of PARP inhibitors. The reaction mixture was incubated at room temperature for 15 min, and the reaction was terminated by adding trichloroacetic acid. The precipitate was transferred onto GF/B filter. After the filter was washed and dried, the radioactivity was determined by liquid scintillation counting. IC50 values were calculated from the concentration dependence of the inhibition curves by using computer-assisted non-linear regression analyses.
# [2] = target: Poly [ADP-ribose] polymerase 1 (Homo sapiens, UniProt P09874); experiment: PARP Enzyme Inhibition Assay; conditions: pH 8; 23 °C
# Method: as §1
# Chain of Poly [ADP-ribose] polymerase 2 (O88554 whole entry): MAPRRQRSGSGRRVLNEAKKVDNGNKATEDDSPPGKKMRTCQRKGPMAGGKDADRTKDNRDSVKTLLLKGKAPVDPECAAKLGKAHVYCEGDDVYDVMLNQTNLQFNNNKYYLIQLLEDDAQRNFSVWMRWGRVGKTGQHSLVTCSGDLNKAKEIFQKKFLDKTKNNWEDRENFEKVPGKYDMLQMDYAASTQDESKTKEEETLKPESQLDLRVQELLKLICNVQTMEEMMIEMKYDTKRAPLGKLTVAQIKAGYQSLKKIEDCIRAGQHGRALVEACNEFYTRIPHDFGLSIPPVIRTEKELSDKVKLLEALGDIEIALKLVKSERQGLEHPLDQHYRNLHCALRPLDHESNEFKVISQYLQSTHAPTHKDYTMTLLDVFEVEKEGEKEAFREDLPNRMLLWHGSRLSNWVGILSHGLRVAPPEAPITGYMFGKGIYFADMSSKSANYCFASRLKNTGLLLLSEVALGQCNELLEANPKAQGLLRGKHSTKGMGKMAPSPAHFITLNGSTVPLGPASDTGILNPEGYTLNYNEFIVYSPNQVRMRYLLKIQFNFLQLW
# Chain of Poly [ADP-ribose] polymerase 1 (P09874 whole entry): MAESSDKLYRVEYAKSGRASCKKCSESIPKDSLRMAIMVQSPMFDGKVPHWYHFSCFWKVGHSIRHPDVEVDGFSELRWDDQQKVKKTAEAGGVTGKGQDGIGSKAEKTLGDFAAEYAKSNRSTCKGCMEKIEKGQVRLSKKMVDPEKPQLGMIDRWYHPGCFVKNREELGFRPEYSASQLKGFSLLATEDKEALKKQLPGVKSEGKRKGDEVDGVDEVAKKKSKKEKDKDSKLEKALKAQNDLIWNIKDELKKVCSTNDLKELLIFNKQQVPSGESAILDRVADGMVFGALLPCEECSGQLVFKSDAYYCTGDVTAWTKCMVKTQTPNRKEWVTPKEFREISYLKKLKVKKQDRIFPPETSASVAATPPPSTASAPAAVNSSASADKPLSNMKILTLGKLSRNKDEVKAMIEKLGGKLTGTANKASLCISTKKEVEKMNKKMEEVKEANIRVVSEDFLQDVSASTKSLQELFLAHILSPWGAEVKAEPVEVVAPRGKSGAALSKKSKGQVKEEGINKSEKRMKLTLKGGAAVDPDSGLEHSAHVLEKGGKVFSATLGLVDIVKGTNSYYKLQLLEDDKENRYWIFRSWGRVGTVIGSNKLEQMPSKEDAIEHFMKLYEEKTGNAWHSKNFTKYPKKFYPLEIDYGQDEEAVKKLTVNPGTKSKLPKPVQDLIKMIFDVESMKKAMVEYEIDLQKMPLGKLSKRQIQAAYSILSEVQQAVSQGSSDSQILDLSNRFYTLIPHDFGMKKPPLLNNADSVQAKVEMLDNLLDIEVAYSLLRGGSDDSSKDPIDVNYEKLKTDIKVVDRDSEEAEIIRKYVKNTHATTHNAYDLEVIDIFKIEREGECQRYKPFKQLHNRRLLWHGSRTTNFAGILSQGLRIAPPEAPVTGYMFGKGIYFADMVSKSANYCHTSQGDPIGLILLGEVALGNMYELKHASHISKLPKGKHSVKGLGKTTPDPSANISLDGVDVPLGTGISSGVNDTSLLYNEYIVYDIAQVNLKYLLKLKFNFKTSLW
Compound,IC50 [1],IC50 [2]
NC(=O)c1cccc(N)c1,9810 nM,
O=c1[nH]c(CCCN2CC=C(c3ccccc3)CC2)nc2c(Cl)cccc12,610 nM,23 nM
N#Cc1ccc(C2=CCN(CCCc3nc4c(Cl)cccc4c(=O)[nH]3)CC2)cc1,87 nM,3 nM
Cc1cccc2c(=O)[nH]c(CCCN3CC=C(c4ccc(F)cc4)CC3)nc12,167 nM,16 nM
O=c1[nH]c2ccc(CCCN3CC=C(c4ccccc4)CC3)cc2c2ccccc12,84 nM,82 nM
N#Cc1ccc(-c2cnc3cccc(C(N)=O)c3n2)cc1,8 nM,101 nM
NC(=O)c1cccc2ncc(-c3ccc(C(F)(F)F)cc3)nc12,11 nM,118 nM
COc1ccc(-c2cnc3cccc(C(N)=O)c3n2)cc1,8 nM,71 nM
"O=c1[nH]c(=O)n(CCCCN2CC=C(c3ccccc3)CC2)c2ccccc12 [1-[4-(4-phenyl-1,2,3,6-tetrahydropyridin-1-yl)butyl]-1,2,3,4-tetrahydroquinazoline-2,4-dione]",70 nM,120 nM
"O=c1[nH]c(CCCN2CC=C(c3ccccc3)CC2)nc2ccccc12 [2-[3-(4-phenyl-1,2,3,6-tetrahydropyridin-1-yl)propyl]-3,4-dihydroquinazolin-4-one]",608 nM,21 nM
"O=c1[nH]c(CCCN2CCN(c3ccc(Cl)cc3)CC2)nc2ccccc12 [2-{3-[4-(4-chlorophenyl)piperazin-1-yl]propyl}-3,4-dihydroquinazolin-4-one]",300 nM,11 nM
NC(=O)c1cccc2ncc(-c3ccc(N)cc3)nc12 [3-(4-aminophenyl)quinoxaline-5-carboxamide],9 nM,87 nM
NC(=O)c1cccc2ncc(-c3ccc(Cl)cc3)nc12 [3-(4-chlorophenyl)quinoxaline-5-carboxamide],7 nM,33 nM
NC(=O)c1cccc2ncc(-c3ccccc3)nc12 [3-phenylquinoxaline-5-carboxamide],14 nM,131 nM
"O=c1[nH]nc(CCCCN2CC=C(c3ccccc3)CC2)c2ccccc12 [4-[4-(4-Phenyl-3,6-dihydro-2H-pyridin-1-yl)-butyl]-2H-phthalazin-1-one]",90 nM,120 nM
"O=c1[nH]nc(CCCCN2CC=C(c3ccc(F)cc3)CC2)c2ccccc12 [4-{4-[4-(4-fluorophenyl)-1,2,3,6-tetrahydropyridin-1-yl]butyl}-1,2-dihydrophthalazin-1-one]",84 nM,49 nM
"O=c1[nH]c(CCCN2CC=C(c3ccccc3)CC2)nc2cccc(Cl)c12 [5-Chloro-2-[3-(4-phenyl-3,6-dihydro-2H-pyridin-1-yl)-propyl]-3H-quinazolin-4-one]",630 nM,68 nM
"Cc1nc2cccc(Cl)c2c(=O)[nH]1 [5-chloro-2-methyl-3,4-dihydroquinazolin-4-one]",660 nM,
"O=c1[nH]c(=O)n(CCCCC2CC=C(c3ccccc3)CC2)c2cccc(F)c12 (stereo unspecified) [5-fluoro-1-[4-(4-phenylcyclohex-3-en-1-yl)butyl]-1,2,3,4-tetrahydroquinazoline-2,4-dione]",,> 1000 nM
"O=c1[nH]c(CCCN2CC=C(c3ccc(F)cc3)CC2)nc2c(Cl)cccc12 [8-chloro-2-{3-[4-(4-fluorophenyl)-1,2,3,6-tetrahydropyridin-1-yl]propyl}-3,4-dihydroquinazolin-4-one]",500 nM,
